Patent publication US20240308960A1 (Sumitomo Pharma Co., Ltd., priority 2021, published 2024)

Molecular target: T1, Human orexin receptor type 2 (Homo sapiens, UniProt O43614)
T1 sequence (O43614 1-444): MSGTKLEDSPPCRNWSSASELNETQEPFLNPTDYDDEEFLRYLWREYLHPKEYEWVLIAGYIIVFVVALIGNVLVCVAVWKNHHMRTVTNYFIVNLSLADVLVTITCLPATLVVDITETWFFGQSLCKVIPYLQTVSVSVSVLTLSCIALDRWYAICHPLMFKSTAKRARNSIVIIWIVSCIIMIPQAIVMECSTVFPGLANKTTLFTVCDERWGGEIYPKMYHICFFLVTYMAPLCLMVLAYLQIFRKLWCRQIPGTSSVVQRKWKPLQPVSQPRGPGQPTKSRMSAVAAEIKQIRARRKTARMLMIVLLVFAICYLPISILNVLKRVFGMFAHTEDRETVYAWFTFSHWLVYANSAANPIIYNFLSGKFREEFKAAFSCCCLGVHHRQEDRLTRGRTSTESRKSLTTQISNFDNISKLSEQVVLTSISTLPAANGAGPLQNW
Experiment: Test Example 1: agonist activity for orexin receptor type 2 (aequorin luminescence, intracellular calcium mobilization)
Conditions: compound 10 μm; CHO cells transiently expressing human orexin receptor type 2 and apoaequorin; relative percentage of luminescence for the luminescence (100%) of Orexin A (100 μM)
Procedure: Human orexin receptor type 2 and apoaequorin were transiently expressed in CHO cells, and the agonist activity was evaluated based on intracellular calcium mobilization with ligand stimulation. The CHO cells transiently-expressed human orexin receptor type 2 and apoaequorin were seeded on a 384-well plate by 2,000 cells/well, and then incubated for 16-22 hours. After the plate was returned to room temperature, Coelenterazine hcp (final concentration: 1 μM) was added to the plate, and the plate was allowed to stand at room temperature for 2 hours. And then, Orexin A or each test compound was added to the plate, and the luminescence of the cells was measured with FDSS7000 (Hamamatsu Photonics K. K.), wherein Orexin A and each test compound were dissolved in DMSO (final concentration: 0.1%), and diluted with a buffer (Hanks, 20 mM HEPES, 0.1% BSA). The agonist activity of each test compound for orexin receptor type 2 was calculated as relative percentage of luminescence for the luminescence (100%) of Orexin A (100 μM).

SMILES	Agonist Activity (%)
CC1(c2noc(C3CC3)n2)CCN(C(=O)Nc2c(F)cccc2C2=CCOCC2)CC1 [Example 56, 4-(5-cyclopropyl-1,2,4-oxadiazol-3-yl)-N-[2-(3,6-dihydro-2H-pyran-4-yl)-6-fluorophenyl]-4-methylpiperidine-1-carboxamide]	44%
CC(C)N1CCN(c2cccc(F)c2NC(=S)N2CCC(C)(c3noc(C4CC4)n3)CC2)CC1 [Example 57, 4-(5-cyclopropyl-1,2,4-oxadiazol-3-yl)-N-{2-fluoro-6-[4-(propan-2-yl)piperazin-1-yl]phenyl}-4-methylpiperidine-1-carbothioamide]	171%
Cc1ccc(C2CCN(C(=O)Nc3c(F)cccc3-c3cnn(C4CC4)c3)CC2)cc1 [Example 58, N-[2-(1-cyclopropyl-1H-pyrazol-4-yl)-6-fluoro-phenyl]-4-(4-methylphenyl)piperidine-1-carboxamide]	71%
CC(C)c1ccc(-c2cccc(F)c2NC(=O)N2CCC(C)(c3cc(C4CC4)on3)CC2)cn1 [Example 59, 4-(5-cyclopropyl-1,2-oxazol-3-yl)-N-{2-fluoro-6-[6-(propan-2-yl)pyridin-3-yl]phenyl}-4-methylpiperidine-1-carboxamide]	158%
CC(C)c1ccc(-c2cccc(F)c2NC(=O)N2CCC(C)(c3noc(C4CC4)n3)CC2)cn1 [Example 60, 4-(5-cyclopropyl-1,2,4-oxadiazol-3-yl)-N-{2-fluoro-6-[6-(propan-2-yl)pyridin-3-yl]phenyl}-4-methylpiperidine-1-carboxamide]	102%
CC(C)N1CCN(c2cccc(Cl)c2NC(=O)N2CCC(C)(c3cc(C4CC4)on3)CC2)CC1 [Example 61, N-{2-chloro-6-[4-(propan-2-yl)piperazin-1-yl]phenyl}-4-(5-cyclopropyl-1,2-oxazol-3-yl)-4-methylpiperidine-1-carboxamide]	156%
Cc1ccc(C2CCN(C(=O)Nc3c(F)cccc3OC3CCN(C(C)C)CC3)CC2)cc1 [Example 62, N-(2-fluoro-6-{[1-(propan-2-yl)piperidin-4-yl]oxy}phenyl)-4-(4-methylphenyl)piperidine-1-carboxamide]	75%
COc1cccc(CN2CCN(C(C)C)CC2)c1NC(=O)N1CCC(c2ccc(C)cc2)CC1 [Example 63, N-(2-methoxy-6-{[4-(propan-2-yl)piperazin-1-yl]methyl}phenyl)-4-(4-methylphenyl)piperidine-1-carboxamide]	26%
Cc1ccc(C2CCN(C(=S)Nc3c(F)cccc3N3CCN(C(C)C)CC3)CC2)cc1 [Example 64, N-{2-fluoro-6-[4-(propan-2-yl)piperazin-1-yl]phenyl}-4-(4-methylphenyl)piperidine-1-carbothioamide]	140%
CC(C)c1ccc(-c2cccc(F)c2NC(=O)N2CCC(C)(c3noc(C4CC4)n3)CC2)cc1 [Example 65, 4-(5-cyclopropyl-1,2,4-oxadiazol-3-yl)-N-[3-fluoro-4′-(propan-2-yl) [1,1′-biphenyl]-2-yl]-4-methylpiperidine-1-carboxamide]	93%
CC(C)N1CCN(c2cccc(Cl)c2NC(=O)N2CCC(C)(c3nc4ccccc4o3)CC2)CC1 [Example 66, 4-(1,3-benzoxazol-2-yl)-N-{2-chloro-6-[4-(propan-2-yl)piperazin-1-yl]phenyl}-4-methylpiperidine-1-carboxamide]	129%
CC(C)N1CCN(c2cccc(Cl)c2NC(=O)N2CCC(C)(c3noc(C4CC4)n3)CC2)CC1 [Example 67, N-{2-chloro-6-[4-(propan-2-yl)piperazin-1-yl]phenyl}-4-(5-cyclopropyl-1,2,4-oxadiazol-3-yl)-4-methylpiperidine-1-carboxamide]	154%
Cc1ccc(-c2cccc(F)c2NC(=O)N2CCC(C)(c3cc(C4CC4)on3)CC2)cn1 [Example 68, 4-(5-cyclopropyl-1,2-oxazol-3-yl)-N-[2-fluoro-6-(6-methylpyridin-3-yl)phenyl]-4-methylpiperidine-1-carboxamide]	68%
CC(C)c1ccc(-c2cccc(Cl)c2NC(=O)N2CCC(C)(c3cc(C4CC4)on3)CC2)cn1 [Example 69, N-{2-chloro-6-[6-(propan-2-yl)pyridin-3-yl]phenyl}-4-(5-cyclopropyl-1,2-oxazol-3-yl)-4-methylpiperidine-1-carboxamide]	129%
CC1(c2cc(C3CC3)on2)CCN(C(=O)Nc2c(F)cccc2-c2ccc(C(F)(F)F)nc2)CC1.Cl [Example 71, 4-(5-cyclopropyl-1,2-oxazol-3-yl)-N-{2-fluoro-6-[6-(trifluoromethyl)pyridin-3-yl]phenyl}-4-mehylpiperidine-1-carboxamide hydrochloride]	88%
CC(C)c1ncc(-c2cccc(F)c2NC(=O)N2CCC(C)(c3noc(C4CC4)n3)CC2)cn1 [Example 72, 4-(5-cyclopropyl-1,2,4-oxadiazol-3-yl)-N-{2-fluoro-6-[2-(propan-2-yl)pyrimidin-5-yl]phenyl}-4-methylpiperidine-1-carboxamide]	144%
CC(C)N1CCN(c2cccc(F)c2NC(=O)N2CCC(C)(c3noc(C4CCCC4)n3)CC2)CC1 [Example 73, 4-(5-cyclopentyl-1,2,4-oxadiazol-3-yl)-N-{2-fluoro-6-[4-(propan-2-yl)piperazin-1-yl]phenyl}-4-methylpiperidine-1-carboxamide]	141%
CC(C)N1CCN(c2cccc(Cl)c2NC(=O)N2CCC(C)(c3noc(C4CCCC4)n3)CC2)CC1 [Example 74, N-{2-chloro-6-[4-(propan-2-yl)piperazin-1-yl]phenyl}-4-(5-cyclopentyl-1,2,4-oxadiazol-3-yl)-4-methylpiperidine-1-carboxamide]	145%
CC(C)N1CCN(c2cccc(F)c2NC(=O)N2CCC(C)(c3noc(C4CC(F)(F)C4)n3)CC2)CC1 [Example 75, 4-[5-(3,3-difluorocyclobutyl)-1,2,4-oxadiazol-3-yl]-N-{2-fluoro-6-[4-(propan-2-yl)piperazin-1-yl]phenyl}-4-methylpiperidine-1-carboxamide]	131%
CC(C)N1CCN(c2cccc(Cl)c2NC(=O)N2CCC(C)(c3noc(C4CC(F)(F)C4)n3)CC2)CC1 [Example 76, N-{2-chloro-6-[4-(propan-2-yl)piperazin-1-yl]phenyl}-4-[5-(3,3-difluorocyclobutyl)-1,2,4-oxadiazol-3-yl]-4-methylpiperidine-1-carboxamide]	148%
Cc1ccc(C2(C)CCN(C(=O)Nc3c(Cl)cccc3N3CCN(C(C)C)CC3)CC2)cc1 [Example 77, N-{2-chloro-6-[4-(propan-2-yl)piperazin-1-yl]phenyl}-4-methyl-4-(4-methylphenyl)piperidine-1-carboxamide]	158%
CC(C)N1CCN(c2cccc(Cl)c2NC(=O)N2CCC(C)(c3noc(C4CCC4)n3)CC2)CC1 [Example 78, N-{2-chloro-6-[4-(propan-2-yl)piperazin-1-yl]phenyl}-4-(5-cyclobutyl-1,2,4-oxadiazol-3-yl)-4-methylpiperidine-1-carboxamide]	170%
CC(C)N1CCN(c2cccc(F)c2NC(=O)N2CCC(C)(c3noc(C4(C)CC4)n3)CC2)CC1 [Example 79, N-{2-fluoro-6-[4-(propan-2-yl)piperazin-1-yl]phenyl}-4-methyl-4-[5-(1-methylcyclopropyl)-1,2,4-oxadiazol-3-yl]piperidine-1-carboxamide]	156%
CC(C)N1CCN(c2cccc(Cl)c2NC(=O)N2CCC(C)(c3noc(C4(C)CC4)n3)CC2)CC1 [Example 80, N-{2-chloro-6-[4-(propan-2-yl)piperazin-1-yl]phenyl}-4-methyl-4-[5-(1-methylcyclopropyl)-1,2,4-oxadiazol-3-yl]piperidine-1-carboxamide]	157%
Cc1nc(C2(C)CCN(C(=O)Nc3c(Cl)cccc3N3CCN(C(C)C)CC3)CC2)no1 [Example 81, N-{2-chloro-6-[4-(propan-2-yl)piperazin-1-yl]phenyl}-4-methyl-4-(5-methyl-1,2,4-oxadiazol-3-yl)piperidine-1-carboxamide]	145%
CCc1nc(C2(C)CCN(C(=O)Nc3c(F)cccc3N3CCN(C(C)C)CC3)CC2)no1 [Example 82, 4-(5-ethyl-1,2,4-oxadiazol-3-yl)-N-{2-fluoro-6-[4-(propan-2-yl)piperazin-1-yl]phenyl}-4-methylpiperidine-1-carboxamide]	156%
CCc1nc(C2(C)CCN(C(=O)Nc3c(Cl)cccc3N3CCN(C(C)C)CC3)CC2)no1 [Example 83, N-{2-chloro-6-[4-(propan-2-yl)piperazin-1-yl]phenyl}-4-(5-ethyl-1,2,4-oxadiazol-3-yl)-4-methylpiperidine-1-carboxamide]	146%
Cc1cc(C2(C)CCN(C(=O)Nc3c(Cl)cccc3N3CCN(C(C)C)CC3)CC2)no1 [Example 84, N-{2-chloro-6-[4-(propan-2-yl)piperazin-1-yl]phenyl}-4-methyl-4-(5-methyl-1,2-oxazol-3-yl)piperidine-1-carboxamide]	110%
